Test system: HIV-1
Experiment: Resistance test vector (PHENOSENSE) phenotypic susceptibility assay, fold change in IC50, correlated with genotype (Fisher's Exact test, odds ratio)
Type: cell-based, human immunodeficiency virus type 1
Excerpt: See Petropoulos et al., 2000, Antimicrob. Agents Chemother. 44:920-928; U.S. Pat. Nos. 5,837,464 and 6,242,187. PHENOSENSE™ is a phenotypic assay that achieves the benefits of phenotypic testing and overcomes the drawbacks of previous assays.
PHENOSENSE™ can obtain results with only one round of viral replication, thereby avoiding selection of subpopulations of virus that can occur during preparation of viral stocks required for assays that rely on fully infectious virus.
A resistance test vector (“RTV”) can then be constructed by incorporating the amplified viral gene sequences into a replication defective viral vector by using any method known in the art of incorporating gene sequences into a vector. In one embodiment, restrictions enzymes and conventional cloning methods are used. See Sambrook et al., 2001, Molecular Cloning: A Laboratory Manual, Cold Spring Harbor Laboratory, 3rd ed., NY; and Ausubel et al., 1989, Current Protocols in Molecular Biology, Greene Publishing Associates and Wiley Interscience, NY. In a preferred embodiment, ApaI and PinAI restriction enzymes are used. Preferably, the replication defective viral vector is the indicator gene viral vector (“IGVV”). In a preferred embodiment, the viral vector contains a means for detecting replication of the RTV. Preferably, the viral vector contains a luciferase expression cassette.
The assay can be performed by first co-transfecting host cells with RTV DNA and a plasmid that expresses the envelope proteins of another retrovirus, for example, amphotropic murine leukemia virus (MLV). Following transfection, viral particles can be harvested from the cell culture and used to infect fresh target cells in the presence of varying amounts of anti-viral drug(s). The completion of a single round of viral replication in the fresh target cells can be detected by the means for detecting replication contained in the vector. In a preferred embodiment, the completion of a single round of viral replication results in the production of luciferase. By monitoring the amount of, e.g., luciferase activity in the presence of the varying amounts of antiviral drug(s), a resistance curve can be constructed by plotting luciferase activity versus drug concentration. The susceptibility of an HIV, or population of HIV, can be determined by measuring the concentration of antiviral drug at which the luciferase activity detected is half-maximal. This number, the IC50, provides a standard and convenient measure of drug resistance.
Patient derived segment(s) corresponding to the HIV protease and reverse transcriptase coding regions were amplified by the reverse transcription polymerase chain reaction method (RT PCR) using viral RNA isolated from viral particles present in the plasma or serum of HIV infected individuals as follows. Viral RNA was isolated from the plasma or serum using oligo-dT magnetic beads (Dynal Biotech, Oslo, Norway), followed by washing and elution of viral RNA. The RT PCR protocol was divided into two steps. A retroviral reverse transcriptase (e.g. Moloney MuLV reverse transcriptase (Roche Molecular Systems, Inc., Branchburg, N.J.; Invitrogen, Carlsbad, Calif.), or avian myeloblastosis virus (AMV) reverse transcriptase, (Boehringer Mannheim, Indianapolis, Ind.) was used to copy viral RNA into cDNA. The cDNA was then amplified using a thermostable DNA polymerase (e.g. Taq (Roche Molecular Systems, Inc., Branchburg, N.J.), Tth (Roche Molecular Systems, Inc., Branchburg, N.J.), PRIMEZYME™ (isolated from Thermus brockianus, Biometra, Gottingen, Germany)) or a combination of thermostable polymerases as described for the performance of “long PCR” (Barnes, W.M., 1994, Proc. Natl. Acad. Sci, USA 91, 2216 20) (e.g. Expand High Fidelity PCR System (Taq+Pwo), (Boehringer Mannheim. Indianapolis, Ind.); GENEAMP XL™ PCR kit (Tth+Vent), (Roche Molecular Systems, Inc., Branchburg, N.J.); or […] II®, Clontech, Palo Alto, Calif.)

CC(C)CN(C[C@@H](O)[C@H](Cc1ccccc1)NC(=O)O[C@H]1CO[C@H]2OCC[C@H]21)S(=O)(=O)c1ccc(N)cc1 [DRV, darunavir]
Odds Ratio (mutation A71I in PR, reduced susceptibility (FC>2)): 1.74 | Odds Ratio (mutation A71L in PR, reduced susceptibility (FC>2)): 16.53 | Odds Ratio (mutation A71T in PR, increased susceptibility (Table 3)): 0.74 | Odds Ratio (mutation A431I in gag, reduced susceptibility (FC>2)): 5.60 | Odds Ratio (mutation A431V in gag, reduced susceptibility (FC>2)): 1.94 | Odds Ratio (mutation C67F in PR, reduced susceptibility (FC>2)): 3.72 | Odds Ratio (mutation C95F in PR, reduced susceptibility (FC>2)): 3.13 | Odds Ratio (mutation D30N in PR, increased susceptibility (Table 3)): 0.20 | Odds Ratio (mutation D425E in gag, reduced susceptibility (FC>2)): 1.49 | Odds Ratio (mutation E35N in PR, reduced susceptibility (FC>2)): 2.90 | Odds Ratio (mutation E428D in gag, reduced susceptibility (FC>2)): 2.41 | Odds Ratio (mutation E467K in gag, reduced susceptibility (FC>2)): 2.41 | Odds Ratio (mutation E468K in gag, reduced susceptibility (FC>2)): 2.24 | Odds Ratio (mutation F53L in PR, reduced susceptibility (FC>2)): 2.30 | Odds Ratio (mutation F53Y in PR, reduced susceptibility (FC>2)): 3.43 | Odds Ratio (mutation F463L in gag, reduced susceptibility (FC>2)): 1.68 | Odds Ratio (mutation F463S in gag, reduced susceptibility (FC>2)): 3.18 | Odds Ratio (mutation F463V in gag, reduced susceptibility (FC>2)): 2.89 | Odds Ratio (mutation F465L in gag, reduced susceptibility (FC>2)): 1.66 | Odds Ratio (mutation F465S in gag, reduced susceptibility (FC>2)): 2.45 | Odds Ratio (mutation G16A in PR, reduced susceptibility (FC>2)): 3.73 | Odds Ratio (mutation G73A in PR, reduced susceptibility (FC>2)): 8.81 | Odds Ratio (mutation G73C in PR, reduced susceptibility (FC>2)): 2.24 | Odds Ratio (mutation G73T in PR, reduced susceptibility (FC>2)): 7.84 | Odds Ratio (mutation H69R in PR, reduced susceptibility (FC>2)): 2.59 | Odds Ratio (mutation H441Q in gag, reduced susceptibility (FC>2)): 1.99 | Odds Ratio (mutation H441Y in gag, increased susceptibility (Table 3)): 0.59 | Odds Ratio (mutation I13V in PR, reduced susceptibility (FC>2)): 1.71 | Odds Ratio (mutation I15V in PR, reduced susceptibility (FC>2)): 1.53 | Odds Ratio (mutation I47V in PR, reduced susceptibility (FC>2)): 13.64 | Odds Ratio (mutation I50L in PR, increased susceptibility (Table 3)): 0.12 | Odds Ratio (mutation I54A in PR, reduced susceptibility (FC>2)): 2.37 | Odds Ratio (mutation I54L in PR, reduced susceptibility (FC>2)): 5.50 | Odds Ratio (mutation I54M in PR, reduced susceptibility (FC>2)): 14.47 | Odds Ratio (mutation I64L in PR, increased susceptibility (Table 3)): 0.62 | Odds Ratio (mutation I64V in PR, increased susceptibility (Table 3)): 0.84 | Odds Ratio (mutation I66F in PR, reduced susceptibility (FC>2)): 3.25 | Odds Ratio (mutation I66V in PR, reduced susceptibility (FC>2)): 4.86 | Odds Ratio (mutation I72L in PR, reduced susceptibility (FC>2)): 3.02 | Odds Ratio (mutation I84V in PR, reduced susceptibility (FC>2)): 7.06 | Odds Ratio (mutation I85V in PR, reduced susceptibility (FC>2)): 2.76 | Odds Ratio (mutation I93L in PR, increased susceptibility (Table 3)): 0.88 | Odds Ratio (mutation I437V in gag, reduced susceptibility (FC>2)): 1.95 | Odds Ratio (mutation K20R in PR, reduced susceptibility (FC>2)): 1.90 | Odds Ratio (mutation K20T in PR, reduced susceptibility (FC>2)): 1.54 | Odds Ratio (mutation K20V in PR, reduced susceptibility (FC>2)): 3.40 | Odds Ratio (mutation K43R in PR, increased susceptibility (Table 3)): 0.30 | Odds Ratio (mutation K43T in PR, reduced susceptibility (FC>2)): 3.72 | Odds Ratio (mutation K45R in PR, increased susceptibility (Table 3)): 0.35 | Odds Ratio (mutation K55N in PR, reduced susceptibility (FC>2)): 10.28 | Odds Ratio (mutation K55R in PR, reduced susceptibility (FC>2)): 2.70 | Odds Ratio (mutation L10F in PR, reduced susceptibility (FC>2)): 2.59 | Odds Ratio (mutation L19P in PR, reduced susceptibility (FC>2)): 7.16 | Odds Ratio (mutation L23I in PR, reduced susceptibility (FC>2)): 2.10 | Odds Ratio (mutation L24F in PR, reduced susceptibility (FC>2)): 8.57 | Odds Ratio (mutation L33F in PR, reduced susceptibility (FC>2)): 6.78 | Odds Ratio (mutation L63A in PR, increased susceptibility (Table 3)): 0.53 | Odds Ratio (mutation L63Q in PR, increased susceptibility (Table 3)): 0.49 | Odds Ratio (mutation L63S in PR, increased susceptibility (Table 3)): 0.54 | Odds Ratio (mutation L76V in PR, reduced susceptibility (FC>2)): 11.18 | Odds Ratio (mutation L89I in PR, reduced susceptibility (FC>2)): 2.16 | Odds Ratio (mutation L89M in PR, reduced susceptibility (FC>2)): 1.51 | Odds Ratio (mutation L89V in PR, reduced susceptibility (FC>2)): 44.56 | Odds Ratio (mutation L449V in gag, reduced susceptibility (FC>2)): 4.73 | Odds Ratio (mutation L486S in gag, increased susceptibility (Table 3)): 0.51 | Odds Ratio (mutation M36L in PR, reduced susceptibility (FC>2)): 2.20 | Odds Ratio (mutation M46I in PR, reduced susceptibility (FC>2)): 1.92 | Odds Ratio (mutation M46L in PR, reduced susceptibility (FC>2)): 1.60 | Odds Ratio (mutation N88D in PR, increased susceptibility (Table 3)): 0.34 | Odds Ratio (mutation N88S in PR, increased susceptibility (Table 3)): 0.17 | Odds Ratio (mutation P79A in PR, reduced susceptibility (FC>2)): 5.35 | Odds Ratio (mutation P79S in PR, reduced susceptibility (FC>2)): 4.96 | Odds Ratio (mutation P453L in gag, reduced susceptibility (FC>2)): 1.80 | Odds Ratio (mutation P453V in gag, reduced susceptibility (FC>2)): 6.86 | Odds Ratio (mutation P459T in gag, reduced susceptibility (FC>2)): 1.69 | Odds Ratio (mutation Q58E in PR, reduced susceptibility (FC>2)): 2.41 | Odds Ratio (mutation Q61N in PR, reduced susceptibility (FC>2)): 2.48 | Odds Ratio (mutation R452K in gag, reduced susceptibility (FC>2)): 2.99 | Odds Ratio (mutation R452S in gag, reduced susceptibility (FC>2)): 3.92 | Odds Ratio (mutation S451N in gag, increased susceptibility (Table 3)): 0.68 | Odds Ratio (mutation S451T in gag, reduced susceptibility (FC>2)): 1.78 | Odds Ratio (mutation S462N in gag, reduced susceptibility (FC>2)): 2.29 | Odds Ratio (mutation S488A in gag, reduced susceptibility (FC>2)): 2.02 | Odds Ratio (mutation S498L in gag, increased susceptibility (Table 3)): 0.48 | Odds Ratio (mutation S499L in gag, increased susceptibility (Table 3)): 0.56 | Odds Ratio (mutation T4A in PR, reduced susceptibility (FC>2)): 10.65 | Odds Ratio (mutation T4S in PR, reduced susceptibility (FC>2)): 2.80 | Odds Ratio (mutation T12P in PR, reduced susceptibility (FC>2)): 1.84 | Odds Ratio (mutation V11I in PR, reduced susceptibility (FC>2)): 12.85 | Odds Ratio (mutation V32I in PR, reduced susceptibility (FC>2)): 18.66 | Odds Ratio (mutation V77I in PR, increased susceptibility (Table 3)): 0.64 | Odds Ratio (mutation V82A in PR, reduced susceptibility (FC>2)): 1.12 | Odds Ratio (mutation V82C in PR, reduced susceptibility (FC>2)): 3.67 | Odds Ratio (mutation V82F in PR, reduced susceptibility (FC>2)): 5.47 | Odds Ratio (mutation V82I in PR, reduced susceptibility (FC>2)): 2.31 | Odds Ratio (mutation V82L in PR, reduced susceptibility (FC>2)): 5.44 | Odds Ratio (mutation V82T in PR, reduced susceptibility (FC>2)): 1.84

Reference: US20100227313A1, “Methods and Compositions for Determining Altered Susceptibility of HIV-1 to Protease Inhibitor Treatment” (priority 2007, published 2010)
